Data set [1] addresses T1, soluble methane monooxygenase (reductase, component B, hydroxylase) (Methylosinus trichosporium, UniProt P27353).
T1 construct: The cells were disintegrated by sonication; made in house; host or cells: native protein purified from cell paste of the methane-oxidizing bacterium (no recombinant host given)
T1 sequence (P27353 1-526): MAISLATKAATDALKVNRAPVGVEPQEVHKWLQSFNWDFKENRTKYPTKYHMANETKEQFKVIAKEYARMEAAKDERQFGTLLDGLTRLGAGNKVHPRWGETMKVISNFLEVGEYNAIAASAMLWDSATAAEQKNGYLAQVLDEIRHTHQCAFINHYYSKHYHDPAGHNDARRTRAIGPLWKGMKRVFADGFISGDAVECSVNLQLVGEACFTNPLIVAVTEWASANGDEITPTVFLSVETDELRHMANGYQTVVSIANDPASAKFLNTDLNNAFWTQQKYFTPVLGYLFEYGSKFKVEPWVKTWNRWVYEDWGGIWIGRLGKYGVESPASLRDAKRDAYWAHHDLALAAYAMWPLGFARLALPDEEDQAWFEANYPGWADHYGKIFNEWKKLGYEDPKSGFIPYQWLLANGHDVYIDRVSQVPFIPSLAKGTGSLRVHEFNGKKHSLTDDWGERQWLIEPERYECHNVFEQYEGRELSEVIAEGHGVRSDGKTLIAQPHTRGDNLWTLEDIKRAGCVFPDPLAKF
T1 sequence (P27354 1-394 partner): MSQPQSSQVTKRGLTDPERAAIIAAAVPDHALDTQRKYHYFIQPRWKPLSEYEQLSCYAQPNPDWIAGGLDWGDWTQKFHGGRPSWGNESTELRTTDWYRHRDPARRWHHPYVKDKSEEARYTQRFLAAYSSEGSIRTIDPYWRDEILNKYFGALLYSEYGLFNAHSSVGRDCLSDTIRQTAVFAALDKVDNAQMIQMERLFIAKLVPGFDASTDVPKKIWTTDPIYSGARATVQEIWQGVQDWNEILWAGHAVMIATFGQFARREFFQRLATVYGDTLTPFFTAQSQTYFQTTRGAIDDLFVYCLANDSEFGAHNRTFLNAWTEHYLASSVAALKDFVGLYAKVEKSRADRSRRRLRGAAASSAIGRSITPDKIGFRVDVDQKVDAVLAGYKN
T1 sequence (P27355 1-169 partner): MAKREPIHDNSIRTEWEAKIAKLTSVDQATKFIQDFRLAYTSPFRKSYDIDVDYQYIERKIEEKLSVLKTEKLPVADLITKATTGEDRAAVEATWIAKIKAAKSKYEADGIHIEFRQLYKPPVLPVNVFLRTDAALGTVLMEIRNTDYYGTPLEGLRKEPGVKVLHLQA
The data set is described as follows: Degradation of 14C-TCE by purified methane monooxygenase components with NADH, HPLC analysis. The data set is classed as biochemical, Methylosinus trichosporium OB3b. The procedure:
The three components of methane monooxygenase, reductase, component B, and hydroxylase, were purified by the method of Fox and Lipscomb, supra, the disclosure of which is hereby incorporated by reference. All purification procedures were performed at 4° C. The cell paste (100 g) was suspended in 200 ml of 25 mM MOPS, pH 7.0, containing 200 μ M Fe(NH4 )2 (SO4)2.6H2 O and 2 mM cysteine (Buffer A). The cells were disintegrated by sonication. The sonicated suspension was centrifuged at 48000×g for 60 min. The supernatant was decanted, diluted with an additional 100 ml of buffer A, and adjusted to pH 7.0. The cell free extract was immediately loaded onto a fast flow DEAE Sepharose CL-6B column (40 mm×250 mm) equilibrated with buffer A. The column was then washed with 600 ml of buffer A. All MMO components were completely adsorbed. The MMO components were eluted with a 2000 ml gradient of 0.0 to 0.40M NaCl in buffer A. The hydroxylase eluted at 0.075M NaCl. The two additional fractions required for reconstituted hydroxylase activity, component B and the reductase, eluted at 0.18M NaCl and 0.27M NaCl, respectively.
105 nmol of uniformly labelled ^14 C-TCE was added to each vial by injection through the rubber septum above the reaction mixture until a final TCE concentration of 70 μM was reached. The reaction was allowed to proceed for 2 min at 25° C. and then quenched by the addition of sulfuric acid (Sigma Chemical Company, St. Louis, Miss.) at pH 2.0.
Following centrifugation to remove precipitated protein, the reaction mixtures were analyzed by high pressure liquid chromatography (HPLC).

For data set [2], the system named is methane-oxidizing bacteria. Conditions: soil exposed to 0.6% natural gas in air for 3 weeks, TCE average 150 μg/l in influent; cited from earlier work.

SMILES strings stand for the structures.

`ClC=C(Cl)Cl` [TCE, 1,1,2-trichloroethene]: in data set [1] (70 μM 14C-TCE, 2 min at 25° C., HPLC), the “Products of TCE oxidation” value is “formic acid, glyoxylic acid, dichloroacetic acid, and chloral”. The “TCE converted to HPLC-detectable products” value in data set [1] (70 μM 14C-TCE, 2 min at 25° C., reductase 110 μg, component B 13 μg, hydroxylase 250 μg, NADH 0.1 mM) is on record as 53%. Further, the “Products of TCE oxidation in control incubations” value in data set [1] (each one of the methane monooxygenase components or NADH omitted) was “no products of TCE oxidation were detectable”. Moreover, the “Applied TCE passing through the soil” value in data set [2] is given as “less than 5%”.

These data come from US5441887A, “Rapid degradation of halogenated hydrocarbons by soluble methane monooxygenase” (Regents of the University of Minnesota, priority 1994, dated 1995).
